Test results published in patent US20240398785A1, “SMALL MOLECULE DRUGS FOR THE INDUCTION OF TRAINED IMMUNITY” (THE UNIVERSITY OF CHICAGO, priority 2023, published 2024).
Structures can show the parent of a compound that is named as a salt. Where two headings read alike, the source gives them in different places.

Legend:
[1] = system: bone marrow-derived macrophages (BMDMs); experiment: Chemical inhibition of training (MTA, EGCG, 2DG pre-treatment); type: cell-based, mouse
Description: FIG. 3D is a graph of a glycolysis inhibition assay using 1 mM 2DG and measuring TNF-α concentration following Pam3 challenge in cells trained with 10 μM hydrocortisone after 1 h of pre-treatment with PBS or 2DG (n=15). FIGS. 3E-3I are graphs of TNF-α concentration following Pam3 challenge in cells trained with M 5-Fluoroindole-2-Carboxylic Acid (FIG. 3E), Myricetin (FIG. 3F), Nerol (FIG. 3G), Hydroquinone (FIG. 3H), or Fenoterol hydrobromide (FIG. 3I) after pre-treatment with PBS or glycolysis inhibitor, 2DG (n=15). […] All values are expressed as mean±SEM, and statistics were conducted using 2-way ANOVA with Sidak's multiple comparisons test (significance compared with untrained group). *P<0.05, **P<0.01, ***P<0.001, ****P<0.0001, n.s., not significant.
For inhibition studies, BMDMs received inhibitors at specified concentrations 1 h prior to stimulation with training molecules, and inhibitors were present for the entire 24 h training period. […] To test metabolic pathway involvement, cells were pretreated with 1 mM 2′ deoxy-D-glucose.
Upregulation of glycolysis is commonly implicated as one of the underlying mechanisms in the induction of trained immunity.

[2] = system: bone marrow-derived macrophages (BMDMs); experiment: High-throughput trained immunity screening (TNF-α by HEK-Blue Quanti-Blue assay); settings: Mus musculus, BMDM, read-out: Fold Change (TNF-α production increase over untrained control)
Description: High-throughput trained immunity screening: Mature BMDMs were plated at 25,000 cells per well in 45 μL media in 384-well flat-bottomed plates using the Thermo Multidrop Combi liquid handler. Cells were rested overnight at 37° C. and 5% CO2. The following day, training compounds from the Microsource Spectrum Library were added at a volume of 45 nL using the PerkinElmer Janus G3 with Pintools for a final concentration of 1 μM. On day 2, supernatant was removed using the Janus, cells were washed with warm PBS using the Multidrop, and fresh media was added to the cells using the Multidrop. On day 5, cell density was quantified using the IncuCyte imager and software, then cells received media containing 25 ng/mL IFN-7 (BD Biosciences) for 24 hours. On day 6, cells were stimulated with 25 ng/mL Pam3-CSK4 (Invivogen). Supernatant was collected on day 6 and on day 7 following 24 hours of TLR stimulation, and it was stored at −80° C.
To measure TNF-α concentration in the supernatant, a high-throughput Quanti-Blue assay was used. HEK-Blue TNF-α cells (Invivogen) were plated at a density of 25,000 cells per well in 45 μL media (DMEM, 10% HIFBS). 5 μL of supernatant is added to each well using the Janus liquid handler, then the plates were incubated for 24 hours at 37° C. and 5% CO2. The following day, 20 μL of concentrated Quanti-Blue reagent was added to each well using the Combi liquid handler, and the plate was shaken for one minute. Then, the plate incubated at room temperature for 15 minutes before absorbance was measured at 628 nm using the BioTek Synergy NEO 2. All data is represented as a fold change relative to the average of the Pam3 only untrained control (n=20) on each plate.
An additional plate was seeded alongside the screen plates for a manual training assay and ELISA measurement of cytokine secretion to confirm that the BMDMs were behaving as expected. […] On Day 5, each well was imaged using an IncuCyte to quantify cell viability relative to the untrained controls.^20 Furthermore, the cells were checked to see if they maintained a resting phenotype before TLR stimulation by collecting and freezing the supernatant on Day 6 to measure TNF-α concentration after the assay was complete. Trained immunity effects are distinct from innate immune priming, so we checked that the cells maintained a resting phenotype before TLR stimulation by collecting and freezing the supernatant from each of the three screening replicates on Day 6 to measure TNF-α concentration after the assay was complete (FIG. 1F).
For each replicate of the screen, a modified version of the standard 7-day training assay was used.^18 TNF-α concentration was measured using a high throughput Quanti-Blue assay in HEK-Blue TNF-α cells. Concentration is proportional to absorbance measured at 628 nm within the range of the assay. 2,000 small molecules from the MicroSource Spectrum Library were screened.

peritoneal cells = experiment: Peritoneal lavage spectral flow cytometry 2 h after LPS challenge; type: in vivo, mouse
Description: FIG. 4A is a schematic drawing showing a method of screening small molecule inducers of trained immunity in vivo. Mice were injected intraperitoneally (i.p.) with small molecules or vehicle control on days 0, 2, and 4. Mice were challenged with 1 μg lipopolysaccharide (LPS) on day 11 and then bled 1 hour (h) later. […] All values are expressed as mean±SEM, and statistics were conducted using 1-way ANOVA or 2-way ANOVA with multiple comparisons (significance compared with untrained group). *P<0.05, **P<0.01, ***P<0.001, ****P<0.0001, n.s., not significant. All values are expressed as mean±SEM, and statistics were conducted using 1-way ANOVA with two-stage linear step-up procedure (significance compared with untrained group). *P<0.05, **P<0.01, ***P<0.001, ****P<0.0001, n.s., not significant.
To determine which cells were involved, mice were given training injections and challenged as previously described. Then, 2 h after challenge, the mice were sacrificed, and peritoneal cells were collected by lavage. The cells were fixed and stained for intracellular TNF-α and IL-6 and surface costimulatory markers, CD40, CD86, and MHCII. Lineage markers were included for innate immune cells, including neutrophils, eosinophils, monocytes, macrophages, and dendritic cells. The stained cells were then analyzed via spectral flow cytometry.
The activation of these cells and changes to co-stimulatory molecules were then investigated.

[3] = system: bone marrow-derived macrophages (BMDMs); experiment: In vitro trained immunity assay (ELISA, TLR agonist challenge); type: cell-based, mouse; settings: for IL-6 production following challenge: 100 ng/mL Pam3
Description: FIG. 2H is a graph showing TNF-α concentration from BMDMs trained with PBS or hydrocortisone at a concentration of 10 μM followed by challenge with 100 nanograms per milliliter (ng/mL) lipopolysaccharide (LPS) or Pam3 (n=30). […] FIG. 2I is a graph showing TNF-α or interleukin-6 (IL-6) concentration from BMDMs treated with 10 μM hit compounds one hour (hr) prior to 24 hr stimulation with 100 ng/mL Pam3 (n=6). […] All values are expressed as mean±SEM, and statistics were conducted using 1-way ANOVA with Dunnett's multiple comparisons test (significance compared with untrained group). *P<0.05, **P<0.01, ***P<0.001, ****P<0.0001, n.s., not significant.
TNF-α (FIG. 13D) and IL-6 (FIG. 13E) were measured from BMDM cell culture supernatant 24 h following treatment with small molecules or β-glucan.
In vitro trained immunity assay: Mature BMDMs were plated at 10^5 cells per well in 200 L media in 96-well flat-bottomed plates and rested overnight at 37° C. and 5% CO2. The following day, training molecules were added at specified concentrations and incubated for 24 hours. After training, cells were washed with warm PBS and rested for 3 days in fresh media. On day 5, cells received fresh media containing 25 ng/mL IFN-7 (BD Biosciences) for 24 hours. On day 6, cells were stimulated with 100 ng/mL Pam3CSK4 (Invivogen). Cell supernatant was collected 24 hours after stimulation. Supernatants were measured for IL-6 and TNF-α concentrations using ELISA MAX Deluxe kits (BioLegend) according to manufacturer's instructions.
To select an optimal concentration and agonist pairing, a series of ELISAs were performed to validate the training effects.

[4] = glycolysis inhibitor 2-deoxy-D-glucose 1 mM
[5] = peritoneal lavage, 2 h after challenge

SMILES | fold induction at 1 µM [2] | other results
O=C(O)c1cc2cc(F)ccc2[nH]1 [5-Fluoroindole-2-carboxylic acid] | 2.47 | training (TNF-α after Pam3) after 2DG pre-treatment [1]: not susceptible to suppression of training
NC(CO)C(=O)NNCc1ccc(O)c(O)c1O (centres unmarked) [Benserazide hydrochloride] | 1.61 | 
CCCC1O[C@@H]2C[C@H]3[C@@H]4CCC5=CC(=O)C=C[C@]5(C)[C@H]4[C@@H](O)C[C@]3(C)[C@]2(C(=O)CO)O1 (some centres unmarked) [Budesonide] | 2.69 | 
CCC(=O)O[C@]1(C(=O)CCl)[C@@H](C)C[C@H]2[C@@H]3CCC4=CC(=O)C=C[C@]4(C)[C@@]3(F)[C@@H](O)C[C@@]21C [Clobetasol propionate] | 2.07 | 
Oc1ccc(Cl)cc1Cc1cc(Cl)ccc1O [Dichlorophene] | 1.61 | 
CC(Cc1ccc(O)cc1)NCC(O)c1cc(O)cc(O)c1 (centres unmarked) [Fenoterol hydrobromide] | 1.62 | training (TNF-α after Pam3) after 2DG pre-treatment [1, 4]: not susceptible to suppression of training
O=c1[nH]c(=O)n([C@H]2C[C@H](O)[C@@H](CO)O2)cc1F [Floxuridine] | 1.6 | 
CC1(C)O[C@@H]2C[C@H]3[C@@H]4C[C@H](F)C5=CC(=O)C=C[C@]5(C)[C@H]4[C@@H](O)C[C@]3(C)[C@]2(C(=O)CO)O1 [Flunisolide] | 2.49 | training (TNF-α after Pam3) after 2DG pre-treatment [1, 4]: significant inhibition of training; training (TNF-α after Pam3) after EGCG pre-treatment ([1]; histone acetyltransferase inhibitor EGCG 15 μM, 10 μM compound): slightly reduce training though statistical significance was not achieved; training (TNF-α after Pam3) after MTA pre-treatment ([1]; methyltransferase inhibitor MTA 500 μM, 10 μM compound): significant inhibition of training; cell count in the peritoneal lavage (peritoneal cells; 2 h after challenge): increased cell count; CD86 on eosinophils and small peritoneal macrophages (MFI of CD86+ cells) (peritoneal cells; peritoneal lavage): increased amount; MFI of MHCII+ SPMs (peritoneal cells; peritoneal lavage): increased; number of TNF-α+ and IL-6+ eosinophils (peritoneal cells; [5]): significant increases
CC1(C)O[C@@H]2C[C@H]3[C@@H]4C[C@H](F)C5=CC(=O)C=C[C@]5(C)[C@@]4(F)[C@@H](O)C[C@]3(C)[C@]2(C(=O)CO)O1 [Fluocinolone acetonide] | 2.28 | 
CC(=O)OCC(=O)[C@@]12OC(C)(C)O[C@@H]1C[C@H]1[C@@H]3C[C@H](F)C4=CC(=O)C=C[C@]4(C)[C@@]3(F)[C@@H](O)C[C@@]12C [Fluocinonide] | 2.29 | 
CC1(C)O[C@@H]2C[C@H]3[C@@H]4CCC5=CC(=O)CC[C@]5(C)[C@@]4(F)[C@@H](O)C[C@]3(C)[C@]2(C(=O)CCl)O1 [Halcinonide] | 2.7 | 
CC(=O)OCC(=O)[C@@]1(O)CC[C@H]2[C@@H]3CCC4=CC(=O)CC[C@]4(C)[C@H]3[C@@H](O)C[C@@]21C [Hydrocortisone acetate] | 1.68 | 
C[C@]12CCC(=O)C=C1CC[C@@H]1[C@@H]2[C@@H](O)C[C@@]2(C)[C@H]1CC[C@]2(O)C(=O)CO [Hydrocortisone] | 1.78 | IL-6 production following challenge [3]: increased production of IL-6; TNF-α training effect with TLR4 and TLR1/2 agonists ([3]; 10 μM, challenge 100 ng/mL LPS or Pam3, n=30): Training effects were observed; training (TNF-α after Pam3) after 2DG pre-treatment [1, 4]: significant inhibition of training
Oc1ccc(O)cc1 [Hydroquinone] | 1.68 | training (TNF-α after Pam3) after 2DG pre-treatment [1, 4]: not susceptible to suppression of training; cytokine MFIs among TNF-α+ neutrophils and IL-6+ eosinophils (peritoneal cells; [5]): significant increases; number of TNF-α+ and IL-6+ cells (peritoneal cells; [5]): no increase
C=C1CCC2C(CC2(C)C)C(=O)CCC1O (centres unmarked) [Isokobusone] | 1.66 | 
COc1ccc(OC)c(C(O)C(C)N)c1 (centres unmarked) [Methoxamine hydrochloride] | 2.21 | 
O=c1c(O)c(-c2cc(O)c(O)c(O)c2)oc2cc(O)cc(O)c12 [Myricetin] | 2.19 | IL-6 production following challenge [3]: increased production of IL-6; training (TNF-α after Pam3) after 2DG pre-treatment [1, 4]: not susceptible to suppression of training; cell count in the peritoneal lavage (peritoneal cells; 2 h after challenge): increased cell count; number of TNF-α+ and IL-6+ eosinophils (peritoneal cells; [5]): significant increases
CC(=O)N[C@@H](CC(=O)O)C(=O)O [N-Acetylaspartic acid] | 1.6 | 
CC(C)[C@H]1CC[C@H](C(=O)N[C@H](Cc2ccccc2)C(=O)O)CC1 [Nateglinide] | 1.6 | 
CC(C)=CCC/C(C)=C\CO [Nerol] | 1.73 | training (TNF-α after Pam3) after 2DG pre-treatment [1, 4]: not susceptible to suppression of training
NC(=O)N/N=C/c1ccc([N+](=O)[O-])o1 [Nitrofurazone] | 1.69 | 
CN1CCCN=C1COC(=O)C(O)(c1ccccc1)C1CCCCC1 (centres unmarked) [Oxyphencyclimine hydrochloride] | 1.67 | 
C[C@]12C=CC(=O)C=C1CC[C@@H]1[C@@H]2[C@@H](O)C[C@@]2(C)[C@H]1CC[C@]2(O)C(=O)CO [Prednisolone] | 2.06 | 
CCC(C)(C)C(=O)O[C@H]1C[C@@H](C)C=C2C=C[C@H](C)[C@H](CC[C@@H]3C[C@@H](O)CC(=O)O3)[C@H]21 [Simvastatin] | 1.61 | 
N#Cc1c(Cl)c(Cl)c(Cl)c(C#N)c1Cl [Tetrachloroisophthalonitrile] | 1.61 | 
CC1(C)C(C(Cl)Cl)C2(Cl)C(Cl)C(Cl)C1(Cl)C2(Cl)Cl (centres unmarked) [Toxaphene] | 1.63 | 
CC(=O)OCC(=O)[C@@]1(O)[C@H](OC(C)=O)C[C@H]2[C@@H]3CCC4=CC(=O)C=C[C@]4(C)[C@@]3(F)[C@@H](O)C[C@@]21C [Triamcinolone diacetate] | 1.73 | 
C[C@]12C=CC(=O)C=C1CC[C@H]1[C@@H]3C[C@@H](O)[C@](O)(C(=O)CO)[C@@]3(C)C[C@H](O)[C@@]12F [Triamcinolone] | 1.76 | 
Cc1cc2cc3c(C)cc(=O)oc3c(C)c2o1 [Trioxsalen] | 1.66 | 
Cc1cc(CC(=O)O)n(C)c1C(=O)c1ccc(Cl)cc1 [Zomepirac Sodium] | 1.7 | 
